Experimental data published in patent US10947188B2, “Small molecule ferroptosis inducers” (THE TRUSTEES OF COLUMBIA UNIVERSITY IN THE CITY OF NEW YORK, priority 2016, dated 2021).
Read-outs that look alike come from different tables or passages of the source.

System: HT-1080
Experiment: Modulatory profiling: Alamar Blue viability, lethal compound cotreated with death modulator (EC50, AUC)
Assay type: cell-based
Set-up: AUC, modulator HT.3MA / AUC, modulator HT.ALLN / AUC HT.ATA / AUC HT.ActD / AUC HT.BHA / AUC HT.BHT / AUC HT.BocD / AUC HT.CHX / AUC HT.Co2+ / AUC HT.DPQ / AUC HT.EGTA / AUC HT.Lmim / AUC HT.NAD+ / AUC HT.Nec-1 / AUC HT.SP600125 / AUC HT.TLCK / AUC HT.U0126: unit not given beside the values
Conditions: for AUC HT.ATA: HT-1080, modulator ATA; for AUC HT.ActD: HT-1080, modulator ActD; for AUC HT.BHA: HT-1080, modulator BHA; for AUC HT.BHT: HT-1080, modulator BHT; for AUC HT.BocD: HT-1080, modulator BocD; for AUC HT.CHX: HT-1080, modulator CHX; for AUC HT.Co2+: HT-1080, modulator Co2+; for AUC HT.CspA: HT-1080, modulator CspA; for AUC HT.DPQ: HT-1080, modulator DPQ; for AUC HT.Gd3+: HT-1080, modulator Gd3+; for AUC HT.LNAME: HT-1080, modulator LNAME; for AUC HT.Lmim: HT-1080, modulator Lmim; for AUC HT.NAD+: HT-1080, modulator NAD+; for AUC HT.NMMA: HT-1080, modulator NMMA; for AUC HT.Nec-1: HT-1080, modulator Nec-1; for AUC HT.Pepstatin: HT-1080, modulator Pepstatin; for AUC HT.SP600125: HT-1080, modulator SP600125; for AUC HT.TLCK: HT-1080, modulator TLCK; for AUC HT.U0126: HT-1080, modulator U0126; for HT.atoc (AUC) / HT.bCarotene (AUC) / HT.deferox (AUC) / HT.digoxin (AUC) / HT.trolox (AUC) / HT.zVAD (AUC): HT-1080; for HT.atoc (AUC): modulator atoc; for HT.bCarotene (AUC): modulator bCarotene; for HT.deferox (AUC): modulator deferox; for HT.digoxin (AUC): modulator digoxin; for HT.trolox (AUC): modulator trolox; for HT.zVAD (AUC): modulator zVAD; for AUC, modulator HT.3MA / AUC, modulator HT.ALLN: HT-1080 cells, modulatory profile value (AUC); for AUC, modulator HT.3MA: lethal compound cotreated with modulator 3MA; for AUC, modulator HT.ALLN: lethal compound cotreated with modulator ALLN

| Compound | AUC HT.ATA | AUC HT.ActD | AUC HT.BHA | AUC HT.BHT | AUC HT.BocD | AUC HT.CHX | AUC HT.Co2+ | AUC HT.CspA | AUC HT.DPQ | AUC HT.Gd3+ | AUC HT.LNAME | AUC HT.Lmim | AUC HT.NAD+ | AUC HT.NMMA | HT.atoc (AUC) | HT.bCarotene (AUC) | HT.deferox (AUC) | HT.digoxin (AUC) | HT.trolox (AUC) | HT.zVAD (AUC) | also measured |
| --- | --- | --- | --- | --- | --- | --- | --- | --- | --- | --- | --- | --- | --- | --- | --- | --- | --- | --- | --- | --- | --- |
| O=C1C(Cl)=C(N2CCOCC2)C(=O)C(Cl)=C1N1CCOCC1 [CIL11] | 0.0148 | −0.0343 | −0.01902 | −0.09641 | 0.07911 | 0.007052 | 0.05358 | −0.005498 | 0.003904 | −0.0298 | 0.02954 | −0.034 | 0.02582 | −0.02554 | 0.07926 | −0.01827 | 0.0278 | −0.01376 | −0.02115 | −0.002495 | AUC HT.EGTA (HT-1080, modulator EGTA): 0.004002; AUC HT.Nec-1: 0.01983; AUC HT.Pepstatin: −0.003096; AUC HT.SP600125: −0.02876; AUC HT.TLCK: 0.01902; AUC HT.U0126: 0.06089; AUC, modulator HT.3MA: 0.0001144; AUC, modulator HT.ALLN: 0.01794 |
| C[C@@H]1C[C@@H]([C@H](O)CC2CC(=O)NC(=O)C2)C(=O)[C@@H](C)C1 [cycloheximide, Cycloheximide, reference compound] | −0.01057 | 0.06057 | 0.06705 | −0.03297 | 0.0413 | 0.1462 | 0.09948 | 0.04639 | 0.01425 | 0.002991 | 0.02188 | 0.1089 | 0.07007 | 0.01986 | 0.01667 | 0.008758 | 0.2041 | 0.0457 | 0.02127 | 0.0358 | AUC HT.EGTA (HT-1080, modulator EGTA): 0.01386; AUC HT.Nec-1: 0.03736; AUC HT.Pepstatin: 0.006163; AUC HT.SP600125: −0.003327; AUC HT.TLCK: 0.01836; AUC HT.U0126: 0.03848; AUC, modulator HT.3MA: 0.005512; AUC, modulator HT.ALLN: 0.3818 |
| CN(C)CC(O)Cn1c2ccc(Cl)cc2c2cc(Cl)ccc21 (centres unmarked) [CIL5] | 0.0005893 | −0.00753 | −0.08502 | −0.09917 | 0.01524 | 0.09726 | 0.08698 | −0.02159 | 0.009641 | −0.0257 | 0.02263 | 0.003574 | 0.03421 | −0.003405 | 0.03603 | −0.01403 | −0.01025 | 0.005534 | 0.01247 | −0.01378 | AUC HT.EGTA (HT-1080, modulator EGTA): −0.009215; AUC HT.Nec-1: 0.003351; AUC HT.Pepstatin: 0.01965; AUC HT.SP600125: −0.02149; AUC HT.TLCK: −0.004057; AUC HT.U0126: −0.02944; AUC, modulator HT.3MA: 0.0132; AUC, modulator HT.ALLN: 0.07446 |
| CCCCS(=O)(=O)/C=C\C=C/S(=O)(=O)CCCC [CIL49] | 0.04768 | −0.01874 | −0.01433 | −0.08297 | −0.0224 | −0.009484 | 0.008808 | 0.04471 | −0.02418 | 0.000907 | 0.01289 | −0.03685 | −0.01413 | 0.000429 | 0.02137 | −0.02606 | 0.07453 | 0.001647 | −0.01523 | 0.009879 | AUC HT.EGTA (HT-1080, modulator EGTA): 0.02252; AUC, modulator HT.3MA: 0.05435; AUC, modulator HT.ALLN: 0.0662 |
| COc1cccc2c1C(=O)c1c(O)c3c(c(O)c1C2=O)C[C@@](O)(C(C)=O)C[C@@H]3O[C@H]1C[C@H](N)[C@H](O)[C@H](C)O1 [Daunorubicin] | −0.00186 | 0.01442 | 0.0107 | −0.05609 | 0.0522 | 0.05854 | 0.1614 | −0.0792 | 0.008882 | 0.01529 | −0.009852 | 0.06112 | 0.1305 | 0.0183 | 0.009895 | 0.008265 | 0.1515 | 0.1398 | −0.002722 | 0.04455 | AUC HT.EGTA: 0.03262; AUC HT.Nec-1: 0.02174; AUC HT.Pepstatin: 0.005649; AUC HT.SP600125: −0.0113; AUC HT.TLCK: 0.06429; AUC HT.U0126: −0.0159; AUC, modulator HT.3MA: 0.02823; AUC, modulator HT.ALLN: 0.008692 |
| CC(C)C[C@H](NC(=O)[C@H](Cc1ccccc1)NC(=O)c1cnccn1)B(O)O [Bortezomib] | 0.0541 | −0.07229 | −0.04985 | −0.131 | 0.02874 | 0.02631 | 0.06445 | −0.2224 | 0.01079 | −0.02823 | 0.009924 | 0.01347 | 0.139 | 0.01354 | 0.007023 | −0.01914 | −0.01672 | 0.07916 | −0.004183 | 0.01074 | AUC HT.EGTA (HT-1080, modulator EGTA): −0.006629; AUC HT.Nec-1: −0.06186; AUC HT.Pepstatin: −8.033E−05; AUC HT.SP600125: −0.03028; AUC HT.TLCK: 0.07195; AUC HT.U0126: −0.03187; AUC, modulator HT.3MA: −0.07171; AUC, modulator HT.ALLN: −0.08587 |
| COC(=O)c1ccc([C@@H]2c3[nH]c4ccccc4c3C[C@@H](C(=O)OC)N2C(=O)CCl)cc1 [RSL3, reference compound] | −0.04539 | −0.08579 | 0.3798 | 0.2444 | −0.01184 | −0.05099 | −0.1948 | −0.1268 | 0.1653 | −0.01265 | −0.01081 | 0.3302 | 0.007883 | −0.00551 | 0.4471 | −0.01346 | 0.3508 | −0.1463 | 0.4213 | −0.01599 | AUC HT.EGTA (HT-1080, modulator EGTA): 0.03696; AUC HT.Nec-1: 0.07095; AUC HT.Pepstatin: −0.01327; AUC HT.SP600125: −0.1319; AUC HT.TLCK: 0.3152; AUC HT.U0126: 0.3972; AUC, modulator HT.3MA: −0.07471; AUC, modulator HT.ALLN: −0.03802 |
